Assay results as given in patent US6914045B2, “Glycopeptide antibiotics” (Wyeth Holdings Corporation, priority 2001, dated 2005).
≈ marks a conversion by molar mass, not a printed value.

Experiments:
Test in all cases: in vitro antibacterial evaluation, MIC by broth dilution
Format in all cases: cell-based
Enterococcus sp. = details: broth dilution, 18 hours at 35° C.
In short: (§1)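 MIC = lowest antibiotic concentration preventing visible growth; inoculum 5×10^5 CFU/mL; drug range 64-0.06 μg/mL; Muller-Hinton II […]; NCCLS M7-A2 guidance.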

Staphylococcus sp. = details: broth dilution, 18 hours at 35° C.
In short: as §1

Streptococcus sp. = details: broth dilution, 18 hours at 35° C.
In short: as §1

Escherichia coli = details: 18 hours at 35° C.

COc1ccc(COCC2OC(OC3C(CO)OC(Oc4ccc(CC5NC(=O)C(C(C)c6ccccc6)NC(=O)CNC(=O)C(CO)NC(=O)C(C(O)C6CNC(=N)N6C6OC(CO)C(O)C(O)C6O)NC(=O)C(C(O)C6CNC(=N)N6)NC5=O)cc4)C(O)C3O)C(O)C(O)C2O)cc1 (stereo not shown) [Example 232]
MIC Enterococcus avium (GC 4558) (Enterococcus sp.): 32 µg/mL (≈ 22.6 µM)
MIC Enterococcus faecalis (ATCC 29212) (Enterococcus sp.): 32 µg/mL (≈ 22.6 µM)
MIC Enterococcus faecalis (GC 2242) (Enterococcus sp.): 16 µg/mL (≈ 11.3 µM)
MIC Enterococcus faecalis (GC 2691) (Enterococcus sp.): 32 µg/mL (≈ 22.6 µM)
MIC Enterococcus faecalis (GC 3059) (Enterococcus sp.): 32 µg/mL (≈ 22.6 µM)
MIC Enterococcus faecalis (GC 4552) (Enterococcus sp.): 32 µg/mL (≈ 22.6 µM)
MIC Enterococcus faecalis (GC 4553) (Enterococcus sp.): 32 µg/mL (≈ 22.6 µM)
MIC Enterococcus faecalis (GC 4554) (Enterococcus sp.): 32 µg/mL (≈ 22.6 µM)
MIC Enterococcus faecalis (GC 6189) (Enterococcus sp.): 64 µg/mL (≈ 45.2 µM)
MIC Enterococcus faecium (GC 2243) (Enterococcus sp.): 16 µg/mL (≈ 11.3 µM)
MIC Enterococcus faecium (GC 4556) (Enterococcus sp.): 32 µg/mL (≈ 22.6 µM)
MIC Enterococcus faecium (GC 4557) (Enterococcus sp.): 4 µg/mL (≈ 2.83 µM)
MIC Enterococcus faecalis (ATCC 29212) (Enterococcus sp.; inoculum 5×10^5 CFU/mL, strain ATCC 29212): 32 µg/mL (≈ 22.6 µM)
MIC Enterococcus faecalis (GC 2242) (Enterococcus sp.; inoculum 5×10^5 CFU/mL, strain GC 2242): 16 µg/mL (≈ 11.3 µM)
MIC Enterococcus faecium (GC 2243) (Enterococcus sp.; inoculum 5×10^5 CFU/mL, strain GC 2243): 16 µg/mL (≈ 11.3 µM)
MIC Enterococcus faecalis (GC 2691) (Enterococcus sp.; inoculum 5×10^5 CFU/mL, strain GC 2691): 32 µg/mL (≈ 22.6 µM)
MIC Enterococcus faecalis (GC 3059) (Enterococcus sp.; inoculum 5×10^5 CFU/mL, strain GC 3059): 32 µg/mL (≈ 22.6 µM)
MIC Enterococcus faecalis (GC 4552) (Enterococcus sp.; inoculum 5×10^5 CFU/mL, strain GC 4552): 32 µg/mL (≈ 22.6 µM)
MIC Enterococcus faecalis (GC 4553) (Enterococcus sp.; inoculum 5×10^5 CFU/mL, strain GC 4553): 32 µg/mL (≈ 22.6 µM)
MIC Enterococcus faecalis (GC 4554) (Enterococcus sp.; inoculum 5×10^5 CFU/mL, strain GC 4554): 32 µg/mL (≈ 22.6 µM)
MIC Enterococcus faecium (GC 4556) (Enterococcus sp.; inoculum 5×10^5 CFU/mL, strain GC 4556): 32 µg/mL (≈ 22.6 µM)
MIC Enterococcus faecium (GC 4557) (Enterococcus sp.; inoculum 5×10^5 CFU/mL, strain GC 4557): 4 µg/mL (≈ 2.83 µM)
MIC Enterococcus avium (GC 4558) (Enterococcus sp.; inoculum 5×10^5 CFU/mL, strain GC 4558): 32 µg/mL (≈ 22.6 µM)
MIC Enterococcus faecalis (GC 6189) (Enterococcus sp.; inoculum 5×10^5 CFU/mL, strain GC 6189): 64 µg/mL (≈ 45.2 µM)
MIC Coagulase Negative Staphylococcus (GC 4547) (Staphylococcus sp.): 2 µg/mL (≈ 1.41 µM)
MIC Coagulase Negative Staphylococcus (GC 4548) (Staphylococcus sp.): 2 µg/mL (≈ 1.41 µM)
MIC Coagulase Negative Staphylococcus (GC 4549) (Staphylococcus sp.): 1 µg/mL (≈ 0.707 µM)
MIC Coagulase Negative Staphylococcus (GC 4551) (Staphylococcus sp.): 4 µg/mL (≈ 2.83 µM)
MIC Coagulase Negative Staphylococcus (GC 6257) (Staphylococcus sp.): 2 µg/mL (≈ 1.41 µM)
MIC Staphylococcus aureus (ATCC 29213) (Staphylococcus sp.): 4 µg/mL (≈ 2.83 µM)
MIC Staphylococcus aureus (GC 1131) (Staphylococcus sp.): 4 µg/mL (≈ 2.83 µM)
MIC Staphylococcus aureus (GC 3051) (Staphylococcus sp.): 4 µg/mL (≈ 2.83 µM)
MIC Staphylococcus aureus (GC 3053) (Staphylococcus sp.): 8 µg/mL (≈ 5.65 µM)
MIC Staphylococcus aureus (GC 4541) (Staphylococcus sp.): 4 µg/mL (≈ 2.83 µM)
MIC Staphylococcus aureus (GC 4542) (Staphylococcus sp.): 4 µg/mL (≈ 2.83 µM)
MIC Staphylococcus aureus (GC 4544) (Staphylococcus sp.): 4 µg/mL (≈ 2.83 µM)
MIC Staphylococcus aureus (GC 4545) (Staphylococcus sp.): 4 µg/mL (≈ 2.83 µM)
MIC Staphylococcus aureus-SMITH (GC 4543) (Staphylococcus sp.): 4 µg/mL (≈ 2.83 µM)
MIC Staphylococcus haemolyticus (GC 4546) (Staphylococcus sp.): 2 µg/mL (≈ 1.41 µM)
MIC Staphylococcus aureus (ATCC 29213) (Staphylococcus sp.; strain ATCC 29213): 4 µg/mL (≈ 2.83 µM)
MIC Staphylococcus aureus (GC 1131) (Staphylococcus sp.; strain GC 1131): 4 µg/mL (≈ 2.83 µM)
MIC Staphylococcus aureus (GC 3051) (Staphylococcus sp.; strain GC 3051): 4 µg/mL (≈ 2.83 µM)
MIC Staphylococcus aureus (GC 3053) (Staphylococcus sp.; strain GC 3053): 8 µg/mL (≈ 5.65 µM)
MIC Staphylococcus aureus (GC 4541) (Staphylococcus sp.; strain GC 4541): 4 µg/mL (≈ 2.83 µM)
MIC Staphylococcus aureus (GC 4542) (Staphylococcus sp.; strain GC 4542): 4 µg/mL (≈ 2.83 µM)
MIC Staphylococcus aureus-SMITH (GC 4543) (Staphylococcus sp.; strain GC 4543): 4 µg/mL (≈ 2.83 µM)
MIC Staphylococcus aureus (GC 4544) (Staphylococcus sp.; strain GC 4544): 4 µg/mL (≈ 2.83 µM)
MIC Staphylococcus aureus (GC 4545) (Staphylococcus sp.; strain GC 4545): 4 µg/mL (≈ 2.83 µM)
MIC Staphylococcus haemolyticus (GC 4546) (Staphylococcus sp.; strain GC 4546): 2 µg/mL (≈ 1.41 µM)
MIC Coagulase Negative Staphylococcus (GC 4547) (Staphylococcus sp.; strain GC 4547): 2 µg/mL (≈ 1.41 µM)
MIC Coagulase Negative Staphylococcus (GC 4548) (Staphylococcus sp.; strain GC 4548): 2 µg/mL (≈ 1.41 µM)
MIC Coagulase Negative Staphylococcus (GC 4549) (Staphylococcus sp.; strain GC 4549): 1 µg/mL (≈ 0.707 µM)
MIC Coagulase Negative Staphylococcus (GC 4551) (Staphylococcus sp.; strain GC 4551): 4 µg/mL (≈ 2.83 µM)
MIC Coagulase Negative Staphylococcus (GC 6257) (Staphylococcus sp.; strain GC 6257): 2 µg/mL (≈ 1.41 µM)
MIC Streptococcus agalactiae (GC 4564) (Streptococcus sp.): 2 µg/mL (≈ 1.41 µM)
MIC Streptococcus pneumoniae (ATCC 6301) (Streptococcus sp.): 0.5 µg/mL (≈ 0.353 µM)
MIC Streptococcus pneumoniae (GC 1894) (Streptococcus sp.): 0.5 µg/mL (≈ 0.353 µM)
MIC Streptococcus pneumoniae (GC 4565) (Streptococcus sp.): 1 µg/mL (≈ 0.707 µM)
MIC Streptococcus pyogenes (GC 4563) (Streptococcus sp.): 2 µg/mL (≈ 1.41 µM)
MIC Streptococcus pneumoniae (ATCC 6301) (Streptococcus sp.; inoculum 5×10^5 CFU/mL, strain ATCC 6301): 0.5 µg/mL (≈ 0.353 µM)
MIC Streptococcus pneumoniae (GC 1894) (Streptococcus sp.; inoculum 5×10^5 CFU/mL, strain GC 1894): 0.5 µg/mL (≈ 0.353 µM)
MIC Streptococcus pyogenes (GC 4563) (Streptococcus sp.; inoculum 5×10^5 CFU/mL, strain GC 4563): 2 µg/mL (≈ 1.41 µM)
MIC Streptococcus agalactiae (GC 4564) (Streptococcus sp.; inoculum 5×10^5 CFU/mL, strain GC 4564): 2 µg/mL (≈ 1.41 µM)
MIC Streptococcus pneumoniae (GC 4565) (Streptococcus sp.; inoculum 5×10^5 CFU/mL, strain GC 4565): 1 µg/mL (≈ 0.707 µM)
MIC Escherichia coli (ATCC 25922) (Escherichia coli): >64 µg/mL
MIC Escherichia coli (GC 4559) (Escherichia coli): 64 µg/mL (≈ 45.2 µM)
MIC Escherichia coli (GC 4560) (Escherichia coli): 2 µg/mL (≈ 1.41 µM)
